Data published in patent publication US20140157443A1, “METHODS AND COMPOSITIONS FOR DETECTING AND MODULATING A NOVEL MTOR COMPLEX” (ST. JUDE CHILDREN'S RESEARCH HOSPITAL, priority 2011, published 2014).
Entries after “also recorded” stand apart in the source; their conditions may differ. One block for each molecule: values may come before it.

Key:
[1] = tested on: mTOR signaling in TEL2-expressing Arf−/− mouse pre-B cells; test: Immunoblots of mTOR target phosphorylation, KI-67 and LC3B in AZD-8055-treated TEL2-expressing pre-B cells; assay type: cell-based
Procedure: (§1) FIG. 5A provides a graph presenting cell density as a percent control of Karpas-299 cells. Logarithmically growing Karpas-299 cells were treated for three population doublings with increasing amounts (0.1, 0.3, 1, 3, 10, 30, 100, 300, 1000, 3000, 10,000 ng/ml) of Rapamycin, AZD-8055 or OSI-27. Cell densities were plotted as the percentage of cells treated with vehicle. FIG. 5B provides a graph presenting cell density as a percent control of mouse pre-B cells transduced with MSCV-IRES-GFP (vector) or MSCV-TEL2-IRES-GFP (TEL2) and treated with AZD-8055 or Rapamycin. Cell densities were plotted as the percentage of cells treated with vehicle. FIG. 5C provides m-TOR IP/immunoblots of lysates of the Rapamycin-treated Karpas-299 cells probed for the presence of Rictor, mSIN1, mLST8 and TEL2. FIG. 5D provides immunoblots of the same Rapamycin-treated fractions of FIG. 5C probed for the presence of p-mTOR^Ser2448, p-AKT^Ser473, p-AKT^Thr308, p-P70S6K^Thr389, p-S6^Ser235/236, p-4E-BP1^Thr37/46 and for the autophagosome marker LC3B I/II.
At 100 ng/ml AZD-8055, the autophagy salvage pathway was activated as detected by the change in the relative amounts of the LC3BI/II proteins.
(§2) For western blot analysis, cells were lysed in 1× lysis buffer (Cell Signaling Technologies). For co-IP experiments, cells were lysed in CHAPS lysis buffer and xenografts in 1× cell signaling lysis buffer. Co-IP was performed with 2 μg antibody whilst rotating at 4° C.

[2] = tested on: mTOR signaling in Karpas-299 cells; test: Immunoblots of mTOR target phosphorylation, Ki-67 and LC3B in treated Karpas-299 cells; assay type: cell-based, human
Procedure: as §1, with “FIG. 5C provides m-TOR IP/immunoblots of lysates of the Rapamycin-treated Karpas-299 cells probed for the presence of Rictor, mSIN1, mLST8 and TEL2.” left out
as §2

[3] = tested on: TEL2-expressing primary Arf−/− mouse pre-B cells; test: mTOR inhibition: proliferation of TEL2-expressing pre-B cells; assay type: cell-based
Procedure: as §1, with “FIG. 5C provides m-TOR IP/immunoblots of lysates of the Rapamycin-treated Karpas-299 cells probed for the presence of Rictor, mSIN1, mLST8 and TEL2.” left out
(§3) Cells were plated in drug containing growth medium and followed for three population doublings.

Karpas-299 cells = test: mTOR inhibition: proliferation of Karpas-299 cells over three population doublings; assay type: cell-based, human; conditions: 0.1 to 10,000 ng/ml
Procedure: FIG. 5A provides a graph presenting cell density as a percent control of Karpas-299 cells. […] Cell densities were plotted as the percentage of cells treated with vehicle. […] Cell densities were plotted as the percentage of cells treated with vehicle.
as §3

mTORC3 = biological target: T1, mTORC3 (Homo sapiens, UniProt P42345); test: IP-kinase assay, TEL2 IP (mTORC3 alone) with recombinant 4E-BP1; assay type: biochemical; conditions: Karpas-299 TEL2 IP, recombinant 4E-BP1, γ32P-ATP; FKBP12/Rapamycin 37 μg/ml/20 μM; OSI-27 10 μM
T1 construct: endogenous TEL2-expressing Karpas-299 cell lysates immunoprecipitated with mTOR (mTOR IP) or TEL2 (TEL2-IP) antibodies; endogenous in cells; host or cells: Karpas-299
Procedure: (§4) IgG indicates the immunoprecipitation with non-relevant IgG.
(§5) To determine the relative amounts of mTORC 1, 2 and 3, whole cell lysates of Karpas-299 cells were immunoprecipitated with non-relevant IgG, anti-mTOR, anti-TEL2, anti-Raptor, or anti-Rictor antibodies and the IPs were used for western blotting and in vitro kinase assays. […] For in vitro kinase assays, the IPs were incubated with recombinant 4E-BP1 or AKT in the presence of ATP.
(§6) Captured antibody-protein complexes were incubated with recombinant 4E-BP1 (Abcam) or AKT/PKB (Millipore) in the presence of (γ^32P-) ATP.

mTOR = biological target: T2, mTOR (Homo sapiens, UniProt P42345); test: IP-kinase assay, mTOR IP (mTORC1+mTORC2+mTORC3) with recombinant 4E-BP1; assay type: biochemical; conditions: Karpas-299 mTOR IP, recombinant 4E-BP1, γ32P-ATP; FKBP12/Rapamycin 37 μg/ml/20 μM; OSI-27 10 μM
T2 construct: endogenous TEL2-expressing Karpas-299 cell lysates immunoprecipitated with mTOR (mTOR IP) or TEL2 (TEL2-IP) antibodies; endogenous in cells; host or cells: Karpas-299
Procedure: as §4, §5, §6

[4] = tested on: vector-transduced Arf−/− pre-B cells; test: mTOR inhibition: proliferation of vector-transduced pre-B cells; assay type: cell-based, mouse
Procedure: as §1
To determine if mTORC3 is also insensitive to Rapamycin inhibition in vivo, Karpas-299 cells were treated with increasing amounts of drug for three population doublings. […] This was deduced from the steady relative intensities of LC3BI/II proteins at all Rapamycin concentrations (FIG. 5D). […]

[5] = biological target: T3, Rictor (human cell lines) (human, UniProt Q6R327 1-1708); test: TEL2 IP / western blot of cytoplasmic, membrane and nuclear fractions of Karpas-299 cells (FIG. 3A)
T3 construct: mTORC2 component
T3 sequence (Q6R327 whole entry): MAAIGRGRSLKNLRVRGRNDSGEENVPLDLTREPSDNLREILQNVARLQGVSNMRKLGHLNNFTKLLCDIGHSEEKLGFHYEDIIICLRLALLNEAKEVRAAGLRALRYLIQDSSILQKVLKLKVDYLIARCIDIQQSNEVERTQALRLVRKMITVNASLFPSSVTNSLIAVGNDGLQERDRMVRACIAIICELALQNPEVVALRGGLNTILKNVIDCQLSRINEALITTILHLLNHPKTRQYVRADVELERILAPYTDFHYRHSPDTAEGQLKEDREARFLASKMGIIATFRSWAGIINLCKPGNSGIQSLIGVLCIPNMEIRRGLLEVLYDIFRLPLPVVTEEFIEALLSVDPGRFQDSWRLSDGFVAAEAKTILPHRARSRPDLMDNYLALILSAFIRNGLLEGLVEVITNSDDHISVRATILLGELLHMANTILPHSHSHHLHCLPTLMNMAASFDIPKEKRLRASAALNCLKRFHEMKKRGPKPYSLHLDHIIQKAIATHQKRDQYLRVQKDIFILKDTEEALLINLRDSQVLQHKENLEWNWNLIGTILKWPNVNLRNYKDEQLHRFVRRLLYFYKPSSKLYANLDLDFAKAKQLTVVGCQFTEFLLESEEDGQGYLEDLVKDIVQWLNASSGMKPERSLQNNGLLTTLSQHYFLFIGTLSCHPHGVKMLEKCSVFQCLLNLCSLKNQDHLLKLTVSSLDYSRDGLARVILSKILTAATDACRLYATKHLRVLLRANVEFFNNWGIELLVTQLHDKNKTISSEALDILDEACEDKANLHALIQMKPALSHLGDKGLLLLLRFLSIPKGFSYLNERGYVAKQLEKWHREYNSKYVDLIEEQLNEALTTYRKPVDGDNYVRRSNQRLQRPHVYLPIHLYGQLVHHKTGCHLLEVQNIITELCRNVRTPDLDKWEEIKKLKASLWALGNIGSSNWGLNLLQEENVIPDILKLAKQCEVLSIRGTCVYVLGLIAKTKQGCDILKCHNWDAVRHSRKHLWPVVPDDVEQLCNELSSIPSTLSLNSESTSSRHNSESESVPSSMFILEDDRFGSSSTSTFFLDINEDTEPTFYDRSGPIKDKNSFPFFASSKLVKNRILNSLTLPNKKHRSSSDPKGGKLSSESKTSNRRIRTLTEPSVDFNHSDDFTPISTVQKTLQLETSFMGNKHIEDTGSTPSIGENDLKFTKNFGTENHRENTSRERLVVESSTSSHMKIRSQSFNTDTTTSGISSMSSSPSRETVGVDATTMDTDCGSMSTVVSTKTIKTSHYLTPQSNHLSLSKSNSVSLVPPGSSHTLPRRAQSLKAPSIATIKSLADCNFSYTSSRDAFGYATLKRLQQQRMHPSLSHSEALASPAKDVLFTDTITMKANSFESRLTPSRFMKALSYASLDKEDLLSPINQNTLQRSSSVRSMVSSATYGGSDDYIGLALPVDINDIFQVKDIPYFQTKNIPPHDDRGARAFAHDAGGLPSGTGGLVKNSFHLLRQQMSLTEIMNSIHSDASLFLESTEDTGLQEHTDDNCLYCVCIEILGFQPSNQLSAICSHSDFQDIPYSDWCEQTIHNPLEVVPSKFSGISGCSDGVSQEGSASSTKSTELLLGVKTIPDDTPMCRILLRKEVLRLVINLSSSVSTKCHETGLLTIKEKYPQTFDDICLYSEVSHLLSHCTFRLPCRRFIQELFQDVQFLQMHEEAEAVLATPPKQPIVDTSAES
Procedure: Nuclear, cytoplasmic and membrane fractions of Karpas-299 cells were subjected to IP-Western blotting to determine the cellular location of mTORC3.
as §2

[6] = biological target: Rictor of mouse Arf-/- pre-B cells (mouse, UniProt Q6QI06 1-1708); test: TEL2 IP / western blot, whole cell lysates of mouse Arf-/- pre-B cells expressing TEL2 (FIG. 2A)
Procedure: as §2

[7] = biological target: T4, SIN1 of mouse Arf-/- pre-B cells (mouse, UniProt Q8BKH7 2-522, limits assumed); test: as above
T4 construct: also called mSIN1
T4 sequence (Q8BKH7 2-522 limits assumed): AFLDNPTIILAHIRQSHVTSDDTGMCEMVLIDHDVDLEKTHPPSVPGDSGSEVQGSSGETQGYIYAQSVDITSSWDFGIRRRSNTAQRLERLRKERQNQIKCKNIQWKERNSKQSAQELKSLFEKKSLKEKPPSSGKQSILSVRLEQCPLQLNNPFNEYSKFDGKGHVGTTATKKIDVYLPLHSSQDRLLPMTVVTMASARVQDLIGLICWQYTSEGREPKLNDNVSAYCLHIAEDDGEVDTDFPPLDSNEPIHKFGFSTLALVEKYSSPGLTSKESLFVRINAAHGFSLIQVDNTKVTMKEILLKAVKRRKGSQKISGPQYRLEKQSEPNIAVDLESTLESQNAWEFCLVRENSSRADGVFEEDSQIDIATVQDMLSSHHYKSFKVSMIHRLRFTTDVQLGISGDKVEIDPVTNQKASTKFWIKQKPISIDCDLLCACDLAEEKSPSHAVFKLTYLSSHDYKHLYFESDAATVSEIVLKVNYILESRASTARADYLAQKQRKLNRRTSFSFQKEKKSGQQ
Procedure: as §2

[8] = biological target: T5, Raptor (human cell lines) (human, UniProt Q8N122 1-1335); test: TEL2 IP / western blot, whole cell lysates of Karpas-299, K562 and OS-17 cells (FIG. 2B)
T5 construct: mTORC1 component
T5 sequence (Q8N122 whole entry): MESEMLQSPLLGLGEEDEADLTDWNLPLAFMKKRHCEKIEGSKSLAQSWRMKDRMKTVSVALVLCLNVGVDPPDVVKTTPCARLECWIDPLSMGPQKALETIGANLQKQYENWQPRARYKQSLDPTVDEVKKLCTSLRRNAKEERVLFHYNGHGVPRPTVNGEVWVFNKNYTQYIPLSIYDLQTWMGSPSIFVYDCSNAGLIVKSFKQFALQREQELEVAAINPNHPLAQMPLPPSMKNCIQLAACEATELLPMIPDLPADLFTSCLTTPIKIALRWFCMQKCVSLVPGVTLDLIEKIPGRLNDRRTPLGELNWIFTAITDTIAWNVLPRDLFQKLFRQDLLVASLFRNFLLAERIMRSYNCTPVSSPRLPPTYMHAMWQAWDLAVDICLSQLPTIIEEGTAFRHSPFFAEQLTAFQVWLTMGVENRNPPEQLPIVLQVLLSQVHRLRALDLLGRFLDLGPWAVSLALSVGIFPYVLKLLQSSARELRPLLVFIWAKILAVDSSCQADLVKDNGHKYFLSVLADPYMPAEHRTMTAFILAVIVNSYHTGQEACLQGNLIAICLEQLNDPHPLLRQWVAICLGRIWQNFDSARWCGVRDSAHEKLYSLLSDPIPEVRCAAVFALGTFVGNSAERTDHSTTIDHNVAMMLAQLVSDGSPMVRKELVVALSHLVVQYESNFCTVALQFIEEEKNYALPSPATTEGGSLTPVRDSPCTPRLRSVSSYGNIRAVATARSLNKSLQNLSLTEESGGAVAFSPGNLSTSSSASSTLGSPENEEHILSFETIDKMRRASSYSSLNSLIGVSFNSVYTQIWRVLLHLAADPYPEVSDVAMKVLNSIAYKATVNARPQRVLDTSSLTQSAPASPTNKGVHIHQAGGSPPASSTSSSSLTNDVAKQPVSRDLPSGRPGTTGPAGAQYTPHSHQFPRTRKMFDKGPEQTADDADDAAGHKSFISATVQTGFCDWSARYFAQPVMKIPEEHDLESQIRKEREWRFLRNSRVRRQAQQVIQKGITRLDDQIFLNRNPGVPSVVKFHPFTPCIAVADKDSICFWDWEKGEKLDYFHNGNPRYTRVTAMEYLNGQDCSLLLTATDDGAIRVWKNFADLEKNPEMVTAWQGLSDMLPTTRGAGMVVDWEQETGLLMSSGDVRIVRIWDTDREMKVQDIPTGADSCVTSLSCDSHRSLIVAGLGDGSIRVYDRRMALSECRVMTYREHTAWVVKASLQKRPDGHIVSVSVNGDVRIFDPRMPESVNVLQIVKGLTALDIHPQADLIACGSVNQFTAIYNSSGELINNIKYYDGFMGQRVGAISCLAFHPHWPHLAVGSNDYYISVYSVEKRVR
Procedure: as §2

SIN1 (human cell lines) = biological target: T6, SIN1 (human cell lines) (human, UniProt Q9BPZ7 2-522, limits assumed); test: as above
T6 construct: mTORC2 component; also called mSIN1
T6 sequence (Q9BPZ7 2-522 limits assumed): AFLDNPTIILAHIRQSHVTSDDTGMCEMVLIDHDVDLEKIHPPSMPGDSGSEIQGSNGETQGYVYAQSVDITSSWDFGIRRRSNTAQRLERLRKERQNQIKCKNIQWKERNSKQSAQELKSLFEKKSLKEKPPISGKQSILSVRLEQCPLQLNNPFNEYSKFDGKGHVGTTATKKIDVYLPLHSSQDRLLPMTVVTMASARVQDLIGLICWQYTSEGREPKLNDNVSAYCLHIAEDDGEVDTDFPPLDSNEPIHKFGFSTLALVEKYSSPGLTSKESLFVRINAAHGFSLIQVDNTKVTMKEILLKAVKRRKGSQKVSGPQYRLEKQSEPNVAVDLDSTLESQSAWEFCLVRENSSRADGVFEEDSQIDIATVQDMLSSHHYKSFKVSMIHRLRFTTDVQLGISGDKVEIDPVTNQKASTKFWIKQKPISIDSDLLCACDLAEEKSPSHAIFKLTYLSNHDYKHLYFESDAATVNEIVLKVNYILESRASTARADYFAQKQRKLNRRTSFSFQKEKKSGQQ
Procedure: as §2

[9] = biological target: T7, RUVBL2 (bacterially-expressed, purified recombinant) (UniProt Q9Y230 1-463, limits assumed); test: purified proteins co-incubated for 8 or 24 hours, TEL2 IP, western blot for RUVBL2 (FIG. 2C)
T7 construct: Used as a specificity control, a protein not part of mTORC3
T7 sequence (Q9Y230 whole entry): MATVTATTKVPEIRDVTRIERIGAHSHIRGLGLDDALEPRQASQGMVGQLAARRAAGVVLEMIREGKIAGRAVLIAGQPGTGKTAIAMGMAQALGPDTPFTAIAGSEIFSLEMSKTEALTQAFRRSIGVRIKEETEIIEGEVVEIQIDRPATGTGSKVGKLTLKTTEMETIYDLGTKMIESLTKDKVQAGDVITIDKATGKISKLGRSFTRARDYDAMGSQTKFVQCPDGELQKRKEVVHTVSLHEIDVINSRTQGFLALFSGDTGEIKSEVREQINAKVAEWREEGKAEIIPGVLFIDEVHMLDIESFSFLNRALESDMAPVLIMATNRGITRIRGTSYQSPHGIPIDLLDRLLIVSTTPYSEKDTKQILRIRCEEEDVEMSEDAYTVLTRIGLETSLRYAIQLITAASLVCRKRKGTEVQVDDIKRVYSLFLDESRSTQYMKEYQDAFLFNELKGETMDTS

Molecule: COc1ccc(-c2ccc3c(N4CCOC[C@@H]4C)nc(N4CCOC[C@@H]4C)nc3n2)cc1CO [AZD-8055]
Autophagy salvage pathway ([1]; TEL2-expressing pre-B cells): did not induce the autophagy salvage pathway
Cell survival ([1]; TEL2-expressing pre-B cells after complete loss of mTOR signaling): died rapidly
p-Akt Ser473, p-S6 Ser235/236, p-4E-BP1 Thr37/46 phosphorylation and KI-67 antigen ([1]; TEL2-expressing pre-B cells, >100 ng/ml): loss of p-Akt^Ser473, p-S6^Ser235/236, p-4E-BP1^Thr37/46 phosphorylation and loss of the KI-67 antigen
Concentration giving complete loss of 4E-BP1 Thr37/46, P70S6K Thr389 and AKT Ser473 phosphorylation, coinciding with loss of cell proliferation ([2]; Karpas-299): 100 ng/mL
Phosphorylation of AKT Thr308 ([2]; Karpas-299): remained stable
Autophagy salvage pathway (relative amounts of LC3BI/II) ([2]; Karpas-299, 100 ng/ml): activated
Ki-67 antigen (transition to G0 phase) ([2]; Karpas-299, 100 ng/ml): loss of the Ki-67 antigen
mTORC3 signaling / kinase activity in cultured cells [2]: sensitive; also recorded: fully inhibited
Drug concentration that completely inhibited proliferation [3]: > 100 ng/mL
Proliferation of Karpas-299 cells (Karpas-299 cells): completely inhibited proliferation

Molecule: COc1cccc2cc(-c3nc([C@H]4CC[C@H](C(=O)O)CC4)n4ncnc(N)c34)[nH]c12 [OSI-27]
4E-BP1 phosphorylation (kinase activity) by TEL2 IP (mTORC3): reduced 4E-BP1 phosphorylation to levels comparable with IPs using control IgG
mTORC3 signaling / kinase activity in cultured cells [2]: sensitive; also recorded: fully inhibited
Proliferation of Karpas-299 cells (Karpas-299 cells): completely inhibited proliferation
4E-BP1 phosphorylation (kinase activity) by mTOR IP (mTOR): reduced 4E-BP1 phosphorylation to levels comparable with IPs using control IgG

Molecule: CO[C@H]1C[C@@H]2CC[C@@H](C)[C@@](O)(O2)C(=O)C(=O)N2CCCC[C@H]2C(=O)O[C@H]([C@H](C)C[C@@H]2CC[C@@H](O)[C@H](OC)C2)CC(=O)[C@H](C)/C=C(\C)[C@@H](O)[C@@H](OC)C(=O)[C@H](C)C[C@H](C)/C=C/C=C/C=C/1C [Rapamycin]
Drug concentration at which cells stopped proliferating [4]: > 0.3 ng/mL
Concentration causing marked reduction of p-AKT Ser473 phosphorylation ([2]; Karpas-299): > 0.3 ng/mL

binding result [5]: no binding
binding result [6]: no binding
binding result [7]: no binding
binding result [8]: no binding
binding result (SIN1 (human cell lines)): no binding
binding result [9]: no binding
B1: TEL2 (translocation Ets leukemia 2 / Ets variant gene 7) (other)
chain: MQEGELAISPISPVAAMPPLGTHVQARCEAQINLLGEGGICKLPGRLRIQPALWSREDVLHWLRWAEQEYSLPCTAEHGFEMNGRALCILTKDDFRHRAPSSGDVLYELLQYIKTQRRALVCGPFFGGIFRLKTPTQHSPVPPEEVTGPSQMDTRRGHLLQPPDPGLTSNFGHLDDPGLARWTPGKEESLNLCHCAELGCRTQGVCSFPAMPQAPIDGRIADCRLLWDYVYQLLLDTRYEPYIKWEDKDAKIFRVVDPNGLARLWGNHKNRVNMTYEKMSRALRHYYKLNIIKKEPGQKLLFRFLKTPGKMVQDKHSHLEPLESQEQDRIEFKDKRPEISP
notes: Endogenous in the human cell lines and xenografts; Exogenous (MSCV-TEL2-IRES-GFP) in mouse Arf-/- pre-B cells; Purified from transfected HEK 293T cells for the in vitro association; also called TEL2/ETV7; ETV7
